From patent publication US9120744B2, “Plasminogen activator inhibitor-1 inhibitors and methods of use thereof to modulate lipid metabolism” (THE REGENTS OF THE UNIVERSITY OF MICHIGAN, priority 2007, dated 2015)

Experiments:
PAI-1 = PAI-1 activity assay in ex vivo plasma with and without vitronectin; format: biochemical; details: plasma of PAI-1 null or PAI-1/vitronectin null mice, 20 nM PAI-1
active murine PAI-1 = active murine PAI-1 (Mus musculus (Mouse), UniProt P22777); assay: In vivo efficacy in transgenic mice that overexpress PAI-1, active PAI-1 in plasma; details: 3, 10, 30 mg/kg into the IVC, 1 hour
active murine PAI-1, sequence (P22777 23-402): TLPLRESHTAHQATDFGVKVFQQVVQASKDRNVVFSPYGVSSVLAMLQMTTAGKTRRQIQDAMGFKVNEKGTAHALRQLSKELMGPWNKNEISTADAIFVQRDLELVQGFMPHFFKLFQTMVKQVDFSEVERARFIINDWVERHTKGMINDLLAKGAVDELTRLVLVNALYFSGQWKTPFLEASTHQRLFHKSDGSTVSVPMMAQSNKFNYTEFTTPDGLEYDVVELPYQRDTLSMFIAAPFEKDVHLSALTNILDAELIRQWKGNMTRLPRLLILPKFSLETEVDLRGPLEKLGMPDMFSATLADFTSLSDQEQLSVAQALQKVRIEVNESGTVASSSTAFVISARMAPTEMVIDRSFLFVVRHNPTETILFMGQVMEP

active PAI-1 in plasma after treatment (in words) (active murine PAI-1): dose-dependent decrease in active PAI-1
SMILES: O=C(OC[C@H]1OC(OC(=O)c2cc(O)c(O)c(O)c2)[C@H](OC(=O)c2cc(O)c(O)c(O)c2)[C@@H](OC(=O)c2cc(O)c(O)c(O)c2)[C@H]1OC(=O)c1cc(O)c(O)c(O)c1)c1cc(O)c(O)c(O)c1 (some centres unmarked) [CDE-066]
PAI-1 inhibition in plasma with or without vitronectin (in words) (PAI-1): inhibited PAI-1 equally well in plasma with or with out physiologic vitronectin
